Usually IC50 stands for the concentration at which inhibition is half-maximal. Read a low IC50 as higher potency. The term bioavailability denotes dose-corrected exposure relative to a reference, in per cent. Low values mean little systemic uptake, high ones much systemic uptake. What is called half-life is the time needed for the level to fall by half in the phase considered. A lower half-life goes with fast loss.

The target in series [1] is Dipeptidyl peptidase 9 (Homo sapiens, UniProt Q86TI2). As to the kind of experiment: Inhibition of DPP9.
Sequence of Dipeptidyl peptidase 9 (Q86TI2 whole entry): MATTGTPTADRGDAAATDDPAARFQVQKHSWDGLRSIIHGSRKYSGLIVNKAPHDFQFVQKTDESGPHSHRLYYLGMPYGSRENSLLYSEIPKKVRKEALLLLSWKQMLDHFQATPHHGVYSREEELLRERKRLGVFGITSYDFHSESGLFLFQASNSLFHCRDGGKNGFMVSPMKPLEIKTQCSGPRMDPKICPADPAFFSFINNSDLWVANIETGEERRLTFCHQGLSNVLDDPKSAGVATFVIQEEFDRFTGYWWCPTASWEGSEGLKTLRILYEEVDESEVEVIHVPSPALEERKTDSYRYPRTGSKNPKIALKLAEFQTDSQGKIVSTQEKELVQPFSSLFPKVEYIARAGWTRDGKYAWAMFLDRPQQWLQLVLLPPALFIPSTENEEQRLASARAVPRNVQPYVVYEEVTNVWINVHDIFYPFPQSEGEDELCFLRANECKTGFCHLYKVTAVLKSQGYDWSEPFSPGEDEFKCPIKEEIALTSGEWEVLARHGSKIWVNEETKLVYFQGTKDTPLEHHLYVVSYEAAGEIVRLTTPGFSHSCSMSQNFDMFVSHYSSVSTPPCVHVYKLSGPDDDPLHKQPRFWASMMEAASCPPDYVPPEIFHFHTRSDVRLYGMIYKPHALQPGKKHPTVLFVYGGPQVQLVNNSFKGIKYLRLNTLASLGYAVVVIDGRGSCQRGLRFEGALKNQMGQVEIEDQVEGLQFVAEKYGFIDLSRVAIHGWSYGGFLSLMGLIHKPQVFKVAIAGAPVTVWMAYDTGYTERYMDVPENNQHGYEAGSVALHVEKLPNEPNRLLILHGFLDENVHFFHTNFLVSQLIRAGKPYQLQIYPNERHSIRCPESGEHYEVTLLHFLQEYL
The target in series [2] is Dipeptidyl peptidase 8 (Homo sapiens, UniProt Q6V1X1). The series can be described thus: Inhibition of DPP8.
Sequence of Dipeptidyl peptidase 8 (Q6V1X1 whole entry): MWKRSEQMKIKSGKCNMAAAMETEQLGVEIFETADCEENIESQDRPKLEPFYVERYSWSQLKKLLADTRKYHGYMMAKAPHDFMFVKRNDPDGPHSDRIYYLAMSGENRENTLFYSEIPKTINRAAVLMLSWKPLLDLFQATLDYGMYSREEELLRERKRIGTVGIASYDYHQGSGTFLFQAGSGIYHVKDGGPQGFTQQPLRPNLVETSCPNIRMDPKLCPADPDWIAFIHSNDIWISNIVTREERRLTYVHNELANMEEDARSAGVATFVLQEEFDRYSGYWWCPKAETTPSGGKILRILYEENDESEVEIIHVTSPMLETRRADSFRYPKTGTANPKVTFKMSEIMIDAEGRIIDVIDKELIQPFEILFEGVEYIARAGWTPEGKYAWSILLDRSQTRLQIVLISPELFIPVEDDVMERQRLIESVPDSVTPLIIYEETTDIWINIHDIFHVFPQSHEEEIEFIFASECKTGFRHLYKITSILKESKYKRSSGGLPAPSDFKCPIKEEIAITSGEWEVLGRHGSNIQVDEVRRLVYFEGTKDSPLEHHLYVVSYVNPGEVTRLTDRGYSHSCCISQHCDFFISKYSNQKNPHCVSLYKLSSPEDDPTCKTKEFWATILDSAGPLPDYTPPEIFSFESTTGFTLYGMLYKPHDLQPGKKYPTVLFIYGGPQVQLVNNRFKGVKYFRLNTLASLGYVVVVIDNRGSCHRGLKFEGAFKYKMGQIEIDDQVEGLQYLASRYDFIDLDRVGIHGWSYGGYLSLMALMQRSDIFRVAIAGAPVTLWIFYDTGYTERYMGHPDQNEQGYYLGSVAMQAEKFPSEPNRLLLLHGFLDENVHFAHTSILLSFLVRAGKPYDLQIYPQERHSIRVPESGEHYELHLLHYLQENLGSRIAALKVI
For series [3], the target named is Dipeptidyl peptidase 4 (Homo sapiens, UniProt P27487). As to the kind of experiment: Inhibition of DPP4.
Sequence of Dipeptidyl peptidase 4 (P27487 whole entry): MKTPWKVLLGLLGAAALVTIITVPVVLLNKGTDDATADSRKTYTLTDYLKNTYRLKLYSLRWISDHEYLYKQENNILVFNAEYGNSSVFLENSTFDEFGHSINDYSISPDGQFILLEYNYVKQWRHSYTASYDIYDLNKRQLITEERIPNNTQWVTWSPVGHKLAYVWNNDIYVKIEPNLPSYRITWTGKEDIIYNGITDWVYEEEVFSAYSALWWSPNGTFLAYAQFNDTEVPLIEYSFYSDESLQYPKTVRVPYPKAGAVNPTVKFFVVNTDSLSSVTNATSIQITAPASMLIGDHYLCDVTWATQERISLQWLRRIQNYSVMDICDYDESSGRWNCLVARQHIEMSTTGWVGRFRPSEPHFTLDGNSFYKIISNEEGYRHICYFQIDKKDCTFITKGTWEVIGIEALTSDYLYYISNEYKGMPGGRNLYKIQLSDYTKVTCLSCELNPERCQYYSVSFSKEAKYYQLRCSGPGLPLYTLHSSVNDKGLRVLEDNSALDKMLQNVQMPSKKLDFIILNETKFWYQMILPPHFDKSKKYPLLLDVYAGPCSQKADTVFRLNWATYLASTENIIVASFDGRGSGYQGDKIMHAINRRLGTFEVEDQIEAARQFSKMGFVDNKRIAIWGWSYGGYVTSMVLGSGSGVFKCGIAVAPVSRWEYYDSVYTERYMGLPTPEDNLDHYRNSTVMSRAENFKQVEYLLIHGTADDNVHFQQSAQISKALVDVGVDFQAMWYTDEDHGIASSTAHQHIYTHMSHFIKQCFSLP
Series [4] concerns the target Dipeptidyl peptidase 2 (Homo sapiens, UniProt Q9UHL4). As to the kind of experiment: Inhibition of QPP.
Series [5] can be described thus: Oral bioavailability in rat at 1 mg/kg, iv and 2 mg/kg, po. It counts as ADME, organism-based. Conditions: in vivo.
The nature of series [6]: Plasma clearance in rat at 1 mg/kg, iv and 2 mg/kg, po. It counts as ADME, organism-based.
A short description of series [7]: Half life in rat at 1 mg/kg, iv and 2 mg/kg, po. It counts as ADME, organism-based. Conditions: in vivo.
For series [8], the target named is Voltage-gated inwardly rectifying potassium channel KCNH2 (Homo sapiens, UniProt Q12809). The series can be described thus: Inhibition of hERG potassium channel. It is filed as toxicity.
Sequence of Voltage-gated inwardly rectifying potassium channel KCNH2 (Q12809 whole entry): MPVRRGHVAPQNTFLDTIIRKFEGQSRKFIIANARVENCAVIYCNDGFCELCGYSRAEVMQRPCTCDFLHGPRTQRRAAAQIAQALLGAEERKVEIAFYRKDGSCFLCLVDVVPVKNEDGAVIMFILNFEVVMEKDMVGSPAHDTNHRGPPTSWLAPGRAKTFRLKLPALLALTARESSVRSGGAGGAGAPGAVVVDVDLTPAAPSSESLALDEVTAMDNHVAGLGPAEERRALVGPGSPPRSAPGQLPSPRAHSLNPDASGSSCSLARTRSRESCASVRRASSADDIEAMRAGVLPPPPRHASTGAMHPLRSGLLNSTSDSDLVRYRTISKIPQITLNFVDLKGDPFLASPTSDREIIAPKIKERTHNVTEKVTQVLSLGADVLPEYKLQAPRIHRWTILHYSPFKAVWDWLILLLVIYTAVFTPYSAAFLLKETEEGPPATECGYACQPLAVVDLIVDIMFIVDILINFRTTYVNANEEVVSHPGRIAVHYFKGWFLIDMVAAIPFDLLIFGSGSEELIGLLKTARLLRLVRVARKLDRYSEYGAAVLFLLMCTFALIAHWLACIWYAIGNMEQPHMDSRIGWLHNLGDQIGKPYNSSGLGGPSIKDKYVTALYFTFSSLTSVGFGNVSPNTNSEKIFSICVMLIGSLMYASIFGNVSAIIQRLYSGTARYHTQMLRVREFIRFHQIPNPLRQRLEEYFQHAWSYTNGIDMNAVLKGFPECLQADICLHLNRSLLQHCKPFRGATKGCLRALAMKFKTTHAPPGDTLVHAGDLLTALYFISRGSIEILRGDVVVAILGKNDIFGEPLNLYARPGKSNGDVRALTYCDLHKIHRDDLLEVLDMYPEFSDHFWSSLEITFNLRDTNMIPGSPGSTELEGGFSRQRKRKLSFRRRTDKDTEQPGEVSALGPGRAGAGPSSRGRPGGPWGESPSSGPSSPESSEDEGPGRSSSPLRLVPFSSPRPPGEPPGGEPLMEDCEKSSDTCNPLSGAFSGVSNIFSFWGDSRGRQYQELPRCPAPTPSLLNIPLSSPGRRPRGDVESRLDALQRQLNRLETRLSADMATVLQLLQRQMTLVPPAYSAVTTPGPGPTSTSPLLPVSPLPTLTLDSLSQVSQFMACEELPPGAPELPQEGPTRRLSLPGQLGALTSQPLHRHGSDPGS
For series [9], the species on record is Homo sapiens. As to the kind of experiment: Selectivity for DPP4 over QPP.
Series [10] can be described thus: Half life in dog. It is filed as ADME, organism-based, Canis lupus familiaris. The following applies: in vivo.
A short description of series [11]: Oral bioavailability in dog. It is filed as ADME, organism-based, Canis lupus familiaris. Conditions: in vivo.

As to `C[C@H](c1nc(-c2ccc(OC(F)(F)F)cc2)no1)[C@H](N)C(=O)N1CCCC1`, the IC50 was > 100 µM in series [1], > 100 µM in [2], 1.79 µM in [3] and 5.2 µM in series [4].
With `C[C@H](c1nc(-c2ccc(S(C)(=O)=O)cc2)no1)[C@H](N)C(=O)N1CCCC1`, the IC50 in series [1] and in [2] was > 100 µM throughout.
Take `C[C@H](c1nc(-c2cccc(C(F)(F)F)c2)no1)[C@H](N)C(=O)N1CCCC1`: the IC50 was > 100 µM in series [1], > 100 µM in series [2], 15.6 µM in series [3] and 4.3 µM in series [4].
For the compound `C[C@H](c1nc(-c2ccccc2)no1)[C@H](N)C(=O)N1CCCC1`, the IC50 is > 100 µM in series [1], > 100 µM in series [2], 19.7 µM in series [3] and 5.7 µM in series [4].
As to `C[C@H](c1nc(-c2ccccc2OC(F)(F)F)no1)[C@H](N)C(=O)N1CCCC1`, the 50% inhibitory concentration (IC50) in series [1] was > 100 µM; in series [2] it was > 100 µM; in series [3] it was 12.4 µM; in series [4], 2.5 µM.
For `C[C@H](c1nc(-c2ccc(F)cc2Cl)no1)[C@H](N)C(=O)N1CCCC1`, the IC50 in series [1] is > 100 µM; in [2], > 100 µM; in [3] it was 0.83 µM; in series [4], 3 µM.
On to `C[C@H](c1nc(-c2cc(Cl)cc(Cl)c2)no1)[C@H](N)C(=O)N1CCCC1`, for which the 50% inhibitory concentration (IC50) is > 100 µM in series [1], > 100 µM in series [2], 7.36 µM in [3] and 2.5 µM in series [4].
For `C[C@H](c1nc(-c2ccc(NS(C)(=O)=O)cc2Cl)no1)[C@H](N)C(=O)N1CCC(F)(F)C1`, the half-inhibitory concentration (IC50) in series [1] is > 100 µM; in series [2], > 100 µM; in [3] it was 0.019 µM; in [4], 0.16 µM.
On to `CC(C)C[C@H](c1nc(-c2ccc(S(C)(=O)=O)cc2Cl)no1)[C@H](N)C(=O)N1CC[C@H](F)C1`, for which the IC50 in [1] was > 100 µM; in series [2], > 100 µM; in [3], 0.013 µM; in series [4] it was 3.7 µM.
With `C[C@H](c1nc(-c2ccccc2Cl)no1)[C@H](N)C(=O)N1CCCC1`, the IC50 was > 100 µM in series [1], > 100 µM in [2], 0.99 µM in series [3] and 2.2 µM in series [4].
Consider `C[C@H](c1nc(-c2ccccc2F)no1)[C@H](N)C(=O)N1CCCC1`, for which the IC50 in series [1] is > 100 µM; in [2], > 100 µM; in series [3] it was 4.79 µM; in series [4] it was 4.5 µM.
In the case of `C[C@H](c1nc(-c2ccc(Cl)cc2Cl)co1)[C@H](N)C(=O)N1CCCC1`, the IC50 was > 100 µM in series [1], > 100 µM in series [2], 1.83 µM in series [3] and 1.05 µM in series [4].
Regarding `CS(=O)(=O)c1ccc(-c2noc([C@@H](CCO)[C@H](N)C(=O)N3CC[C@H](F)C3)n2)c(Cl)c1`, the IC50 in series [1] and in series [2] was > 100 µM throughout.
As for `CS(=O)(=O)c1ccc(-c2noc([C@@H](CC3CC3)[C@H](N)C(=O)N3CC[C@H](F)C3)n2)cc1.O=C(O)C(F)(F)F`, the IC50 in series [1] was > 100 µM; in series [2], > 100 µM; in [3], 0.052 µM; in series [4], 20.4 µM. The bioavailability in [5] was determined as 49%. The clearance in series [6] came out at 11.2 mL/min/kg. Also, in [7], the half-life was 1.8 h.
As to `C[C@H](c1noc(-c2ccc(Cl)cc2Cl)n1)[C@H](N)C(=O)N1CCCC1`, the IC50 in series [1] was > 100 µM; in series [2], > 100 µM; in series [3], 1.21 µM; in [4] it was 4.2 µM.
On to `C[C@H](c1nc(-c2ccc(NS(C)(=O)=O)cc2)no1)[C@H](N)C(=O)N1CCCC1`, for which the IC50 in series [1] was > 100 µM; in [2] it was > 100 µM; in series [3] it was 0.52 µM; in series [4], 5.4 µM.
Turning to `CS(=O)(=O)c1ccc(-c2noc([C@@H](CC3CC3)[C@H](N)C(=O)N3CC[C@H](F)C3)n2)c(Cl)c1`, the half-maximal inhibitory concentration (IC50) in series [1] and in series [2] was > 100 µM throughout.
With `C[C@H](c1nc(-c2ccc(NS(C)(=O)=O)cc2Cl)no1)[C@H](N)C(=O)N1CC[C@H](F)C1`, the IC50 is > 100 µM in series [1], > 100 µM in series [2], 0.019 µM in series [3] and 2.57 µM in series [4].
Turning to `C[C@H](c1nc(-c2ccc(Cl)cc2Cl)no1)[C@H](N)C(=O)N1CCCC1.O=C(O)C(F)(F)F`, the 50% inhibitory concentration (IC50) in [8] is 36.7 µM; in series [1], > 100 µM; in series [2], > 100 µM. In series [5], the bioavailability came to 35%. Besides, the clearance in series [6] was 13.8 mL/min/kg. In [7], this compound gave a half-life of 2.71 h.
Take `C[C@H](c1n[nH]c(-c2ccc(Cl)cc2Cl)n1)[C@H](N)C(=O)N1CCCC1`: the concentration for half-maximal inhibition (IC50) in series [1] was > 100 µM; in series [2], > 100 µM; in series [3] it was 3.05 µM; in series [4], 5.41 µM.
As for `C[C@H](c1nc(-c2ccc(S(C)(=O)=O)cc2Cl)no1)[C@H](N)C(=O)N1CCCC1`, the concentration for half-maximal inhibition (IC50) in [1] and in [2] was > 100 µM throughout. The bioavailability in series [5] worked out at 27%. In addition, in series [6], the clearance stood at 6 mL/min/kg. In [7], the half-life is 0.82 h.
Consider `C[C@H](c1nc(-c2ccc(F)cc2F)no1)[C@H](N)C(=O)N1CCCC1`, for which the half-inhibitory concentration (IC50) in series [1] was > 100 µM; in [2], > 100 µM; in [3], 4.59 µM; in [4] it was 8.1 µM.
As for `C[C@H](c1nc(-c2ccc(C(F)(F)F)cc2)no1)[C@H](N)C(=O)N1CCCC1`, the half-maximal inhibitory concentration (IC50) was > 100 µM in [1], > 100 µM in series [2], 1.61 µM in series [3] and 6 µM in series [4].
Consider `C[C@H](c1nc(-c2ccc(S(C)(=O)=O)cc2Cl)no1)[C@H](N)C(=O)N1CC[C@H](F)C1`, for which the IC50 in series [1] and in series [2] was > 100 µM each time.
For `Cc1cc(S(C)(=O)=O)ccc1-c1noc([C@@H](CC2CC2)[C@H](N)C(=O)N2CC[C@H](F)C2)n1`, the IC50 in [1] was > 100 µM; in [2] it was > 100 µM; in series [3], 0.031 µM; in series [4] it was 2.92 µM.
With `C[C@H](c1nc(-c2ccc(S(=O)(=O)C(F)(F)F)cc2)no1)[C@H](N)C(=O)N1CCCC1`, the IC50 is > 100 µM in [1], > 100 µM in [2], 0.33 µM in series [3] and 24.4 µM in series [4].
As to `C[C@H](c1nc(-c2ccc(Cl)cc2)no1)[C@H](N)C(=O)N1CCCC1`, the IC50 is > 100 µM in series [1], > 100 µM in series [2], 3.82 µM in series [3] and 3.8 µM in series [4].
`C[C@H](c1nc(-c2ccccc2C(F)F)no1)[C@H](N)C(=O)N1CCCC1`: the concentration for half-maximal inhibition (IC50) is > 100 µM in series [1], > 100 µM in [2], 1.82 µM in series [3] and 1 µM in series [4].
Consider `C[C@H](c1nc(-c2ccccc2C(F)(F)F)no1)[C@H](N)C(=O)N1CCCC1`, for which the 50% inhibitory concentration (IC50) in series [1] was > 100 µM; in [2], > 100 µM; in series [3], 4.82 µM; in [4] it was 1.8 µM.
Take `C[C@H](c1nc(-c2ccc(Br)cc2Cl)no1)[C@H](N)C(=O)N1CCCC1`: the 50% inhibitory concentration (IC50) in [1] was > 100 µM; in series [2] it was > 100 µM; in series [3], 0.16 µM; in [4], 1.3 µM.
As for `C[C@H](c1nc(-c2ccc(NS(C)(=O)=O)cc2Cl)no1)[C@H](N)C(=O)N1CC[C@@H](F)C1`, the IC50 is > 100 µM in series [1], > 100 µM in series [2], 0.019 µM in [3] and 1.7 µM in series [4].
On to `C[C@H](c1nc(-c2ccc(NS(C)(=O)=O)cc2Cl)no1)[C@H](N)C(=O)N1CCCC1`, for which the half-maximal inhibitory concentration (IC50) in [1] was > 100 µM; in series [2], > 100 µM; in [3] it was 0.008 µM; in series [4], 1.4 µM.
As to `C[C@H](c1nc(-c2ccc(S(C)(=O)=O)cc2F)no1)[C@H](N)C(=O)N1CCCC1`, the Ratio IC50 in series [9] is > 320. Besides, the IC50 was > 100 µM in series [1], > 100 µM in series [2], 0.043 µM in [3] and 14.1 µM in series [4].
`C[C@H](c1nc(-c2ccc(S(N)(=O)=O)cc2)no1)[C@H](N)C(=O)N1CCCC1`: the concentration for half-maximal inhibition (IC50) in series [1] was > 100 µM; in series [2], > 100 µM; in series [3], 0.19 µM; in [4], 26.8 µM.
As for `C[C@H](c1nnc(-c2ccc(Cl)cc2Cl)o1)[C@H](N)C(=O)N1CCCC1`, the concentration for half-maximal inhibition (IC50) was > 100 µM in series [1], > 100 µM in series [2], 0.56 µM in [3] and 0.85 µM in series [4].
`CS(=O)(=O)c1ccc(-c2noc([C@@H](CC3CC3)[C@H](N)C(=O)N3CC[C@H](F)C3)n2)c(F)c1.O=C(O)C(F)(F)F`: the half-life in series [10] was 1.75 h; in series [7], 1.3 h. Moreover, the half-inhibitory concentration (IC50) in series [8] was 58.5 µM; in series [1], > 100 µM; in series [2], > 100 µM. Further, the bioavailability in series [11] was 95%; in series [5] it was 36%. The same compound registered a clearance in series [6] of 18.7 mL/min/kg.

These data come from ChEMBL document CHEMBL1137276, “Discovery of potent, selective, and orally bioavailable oxadiazole-based dipeptidyl peptidase IV inhibitors” (Bioorg Med Chem Lett, 2006).
